Data published in patent US9481674B1, “Dihydropyrrolopyridine inhibitors of ROR-gamma” (Vitae Pharmaceuticals, Inc., priority 2016, dated 2016).

How the values were obtained:
[1] = target: T1, hERG potassium ion channel (Homo sapiens, UniProt Q12809); experiment: hERG Assay (Assay 4); type: cell-based; conditions: HEK293 cells stably transfected with hERG cDNA, pH 7.4, comparator compounds, Table 4, compound at 3 μM
T1 construct: expressed in transfected cells; host or cells: HEK293
Protocol: Compounds of the invention were tested in vitro against the hERG (human ether-à-go-go-related gene) potassium ion channel (a surrogate for IKr, the rapidly activating delayed rectifier cardiac potassium ion channel).
The buffer was HEPES-buffered physiological saline (HB-PS) solution composed of: 137 mM NaCl, 4.0 mM KCl, 1.8 mM CaCl2, 1 mM MgCl2, 10 mM HEPES, 10 mM glucose, pH adjusted to 7.4 with NaOH, and 0.3% DMSO. Chemicals used in solution preparation were purchased from Sigma-Aldrich (St. Louis, Mo.), unless otherwise noted, and were of ACS reagent grade purity or higher.
HEK (human embryonic kidney) 293 cells were stably transfected with hERG cDNA.
For the patch clamp experiment, onset and steady state inhibition of hERG potassium current was measured using a pulse pattern with fixed amplitudes (depolarization: +20 mV for 2 s; repolarization: −50 mV for 2 s) repeated at 10 s intervals from a holding potential of −80 mV. Peak tail current was measured during the 2 s step to −50 mV. A steady state was maintained for at least 30 seconds before applying compound or positive control (cisapride). Peak tail currents were measured until a new steady state was achieved.
Data acquisition and analyses were performed using the suite of pCLAMP® (ver. 8.2) programs (MDS Analytical Technologies, Sunnyvale, Calif.). […]

IL-17A production = experiment: Human Whole Blood Assay (Assay 3); type: cell-based; conditions: comparator compounds, Table 4, IL-17A, read-out: 50% Human Whole Blood Assay IC50, nM^B (Assay 3)
Protocol: Human Whole Blood Assay (Assay 3)
Compounds of the invention were tested in the human whole blood assay to measure their effects on IL-17A production as determined by cytokine secretion into 50% blood/media supernatant. Mixtures of sodium heparinized whole blood (isolated from healthy human donors) and the T cell activator CytoStim, in the presence or absence of compound, were plated in sterilized, tissue culture-treated 24-well plates. Specifically, the mixtures in each well were as follows: (1) 500 μL of whole blood, (2) 250 μL of compound diluted into RPMI-1640 media containing 10% HyClone™ FCS (Thermo Fisher Scientific, Waltham, Mass.), Gibco® Pen/Strep and Gibco® NEAA (Life Technologies, Grand Island, N.Y.), and (3) 250 μL of CytoStim (Miltenyi Biotech, Germany) diluted to a final concentration of 10 μL/mL in complete cell culture medium.
IL-17A cytokine expression was determined using 25 μL of the transferred supernatant diluted with 25 μL of Diluent 43 from the Human IL-17A V-PLEX™ kit (cat. # K151RFD-4, Meso Scale Discovery, Rockville, Md.). The assay was performed according to the manufacturer's instructions using included reagents. The IL-17A V-PLEX™ plates were read using the Meso Scale Discovery Imager (Model 1200).

T1 sequence (Q12809 whole entry): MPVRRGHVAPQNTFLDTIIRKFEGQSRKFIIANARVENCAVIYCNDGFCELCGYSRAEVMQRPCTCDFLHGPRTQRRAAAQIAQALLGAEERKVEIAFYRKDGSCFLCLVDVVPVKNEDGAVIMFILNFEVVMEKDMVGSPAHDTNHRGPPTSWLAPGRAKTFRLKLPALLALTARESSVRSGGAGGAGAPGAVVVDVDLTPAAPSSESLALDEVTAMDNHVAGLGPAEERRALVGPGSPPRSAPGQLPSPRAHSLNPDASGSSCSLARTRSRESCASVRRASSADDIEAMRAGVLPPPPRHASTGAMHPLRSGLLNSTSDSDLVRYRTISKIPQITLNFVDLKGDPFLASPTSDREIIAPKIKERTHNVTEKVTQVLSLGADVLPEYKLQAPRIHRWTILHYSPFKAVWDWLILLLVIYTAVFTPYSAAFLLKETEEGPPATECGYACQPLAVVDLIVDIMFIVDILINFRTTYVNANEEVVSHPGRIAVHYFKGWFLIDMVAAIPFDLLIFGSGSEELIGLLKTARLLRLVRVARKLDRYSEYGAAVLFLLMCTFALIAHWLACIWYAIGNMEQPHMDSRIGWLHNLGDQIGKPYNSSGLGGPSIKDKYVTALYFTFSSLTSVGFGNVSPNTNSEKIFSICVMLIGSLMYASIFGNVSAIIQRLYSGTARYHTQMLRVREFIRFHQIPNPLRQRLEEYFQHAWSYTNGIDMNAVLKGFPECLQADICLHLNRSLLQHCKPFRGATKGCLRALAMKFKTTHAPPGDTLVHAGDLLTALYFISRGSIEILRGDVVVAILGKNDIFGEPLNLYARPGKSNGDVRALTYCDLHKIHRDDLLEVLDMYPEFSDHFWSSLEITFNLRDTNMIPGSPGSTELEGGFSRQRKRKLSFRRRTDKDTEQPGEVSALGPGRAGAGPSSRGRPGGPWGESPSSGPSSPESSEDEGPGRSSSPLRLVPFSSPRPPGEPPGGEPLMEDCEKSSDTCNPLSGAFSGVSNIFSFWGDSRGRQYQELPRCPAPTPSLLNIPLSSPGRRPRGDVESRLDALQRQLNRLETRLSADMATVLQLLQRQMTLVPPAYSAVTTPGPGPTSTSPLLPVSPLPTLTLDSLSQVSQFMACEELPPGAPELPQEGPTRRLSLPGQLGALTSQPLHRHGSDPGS

IC50 (IL-17A production) [nM] | Compound | inhibition at 3 µM [1] [%]
– | CCS(=O)(=O)c1ccc(CNC(=O)c2cnc3c(c2)CN(C[C@H]2CC[C@H](C(F)(F)F)CC2)[C@H]3C(C)C)cc1 | 57
> 200 | CCS(=O)(=O)c1ccc(CNC(=O)c2cnc3c(c2)CN(C[C@H]2CC[C@H](C(F)(F)F)CC2)[C@H]3C(C)C)nc1 [reference compound] | 45.4
